The text below walks through data of ChEMBL document CHEMBL1129168, “Synthesis and antiviral activity of new phosphonobutoxypurines” (Bioorg Med Chem Lett, 1996).

In brackets after ≈: the same amount, converted by molar mass.

The test system of assay [1] is D34. Description: Compound was tested in vitro for antiviral activity against Human immunodeficiency virus type-1 in D34 cells. It is filed as functional, cell-based.
Assay [2] deals with Human alphaherpesvirus 1. Description: Compound was tested in vitro for antiviral activity against Herpes simplex virus-Type 1 in SC 16 cells. The class given is functional, organism-based.
Assay [3] has as its system MRC5. Description: Compound was tested in vitro for antiviral activity against Herpes viruses(HSV-2, VZV) in human fibroblast (MRC-5) cells. It is filed as functional, cell-based.
Assay [4] is filed under the species Homo sapiens. Put plainly: Compound was tested for its activity against HIV replication in human peripheral blood lymphocytes (PBLs) using MTT-based cytotoxicity assay. It is filed as functional, organism-based.
For assay [5], the system named is Human alphaherpesvirus 2. Put plainly: Compound was tested in vitro for antiviral activity against Herpes simplex virus-Type 2 in MS cells. It is filed as functional, organism-based. Particulars: Human alphaherpesvirus 2, MS.
Assay [6] relates to Human alphaherpesvirus 3. Put plainly: Compound was tested in vitro for antiviral activity against Varicella zoster virus (VZV) in ellen cells. The class given is functional, organism-based.

On to `Nc1nc(O)c2ncn(OCCCCP(=O)(O)O)c2n1`, for which the IC50 was 0.01 µM in assay [1]; greater than 100 µg/mL in assay [2]; 1.6 µg/mL (≈ 5.28 µM) in assay [3]; greater than 100 µM in assay [4]; 23 µg/mL (≈ 75.9 µM) in assay [5]; 6 µg/mL (≈ 19.8 µM) in assay [6].

For `Nc1ncnc2c1ncn2OCC(CO)CCP(=O)(O)O` (stereo unspecified), the IC50 in assay [1] was greater than 100 µM; in assay [2], greater than 100 µg/mL; in assay [3], greater than 100 µg/mL; in assay [5] it was greater than 100 µg/mL; in assay [6], greater than 100 µg/mL.

On to `Nc1nc(N)c2ncn(OCC(CO)CCP(=O)(O)O)c2n1` (stereo unspecified), for which the IC50 in assay [2] is greater than 100 µg/mL; in assay [3], 78 µg/mL (≈ 235 µM); in assay [5], greater than 100 µg/mL; in assay [6], 17 µg/mL (≈ 51.2 µM).

Consider `Nc1ncnc2c1ncn2OCCCCP(=O)(O)O`, for which the IC50 in assay [1] was greater than 100 µM; in assay [2] it was greater than 100 µg/mL; in assay [3] it was 58 µg/mL (≈ 202 µM); in assay [5], greater than 100 µg/mL; in assay [6] it was greater than 100 µg/mL.

`Nc1nc(N)c2ncn(OCCCCP(=O)(O)O)c2n1`: the IC50 in assay [1] was 1 µM; in assay [2] it was greater than 100 µg/mL; in assay [3] it was 26 µg/mL (≈ 86 µM); in assay [4], greater than 100 µM; in assay [5] it was greater than 100 µg/mL; in assay [6] it was 17 µg/mL (≈ 56.2 µM).

`Nc1nc(O)c2ncn(OCC(CO)CCP(=O)(O)O)c2n1` (stereo unspecified): the IC50 is greater than 100 µM in assay [1]; greater than 100 µg/mL in assay [2]; 8.8 µg/mL (≈ 26.4 µM) in assay [3]; greater than 100 µg/mL in assay [5]; 5 µg/mL (≈ 15 µM) in assay [6].
